How the values were obtained:
[1] = system: S. aureus; assay: Minimum Inhibition Concentration (MIC) assay, modified micro-broth dilution, S. aureus; type: cell-based, Staphylococcus aureus; conditions: for activity against Staphylococcus aureus: at concentrations up to 1.0 μM; for MIC against S. aureus: mean±SEM, n=3, 18 hours at 37° C.
[2] = system: E. coli; assay: Minimum Inhibition Concentration (MIC) assay, modified micro-broth dilution, E. coli; type: cell-based, Escherichia coli; conditions: for activity against Escherichia coli: at concentrations up to 1.0 μM; for MIC against E. coli: mean±SEM, n=3, 18 hours at 37° C.

Substance	activity against Staphylococcus aureus [1]	MIC against S. aureus [1]	activity against Escherichia coli [2]	MIC against E. coli [2]
2,6-diaminopyridinyl heparin [DAPHP]	no activity	>1.0 μM of sugar	no activity	>1.0 μM of sugar
hyaluronan [HA]	no activity	>1.0 μM of sugar	no activity	>1.0 μM of sugar
